Assay results taken from article PMC6271965, “Inhibition of GlcNAc-Processing Glycosidases by C-6-Azido-NAG-Thiazoline and Its Derivatives” (Molecules, 2014).
Like-named read-outs stand apart in the source and are kept apart here.

Columns and labels:
Experiment in all cases: pNP-β-GlcNAc hydrolysis, kinetic assay at […] nm
Type in all cases: biochemical
[1] = molecular target: T1, β-N-acetylhexosaminidase from Streptomyces plicatus (Streptomyces plicatus, UniProt O85361); details: read-out: KI [μM] / NAG-thiazoline (1)
T1 construct: gene hex; synthetic gene, His6-tagged fusion in pET-15b (NdeI/BamHI), E. coli BL21(DE3) pLysS, Ni-NTA purified; GH20
T1 sequence (O85361 1-506): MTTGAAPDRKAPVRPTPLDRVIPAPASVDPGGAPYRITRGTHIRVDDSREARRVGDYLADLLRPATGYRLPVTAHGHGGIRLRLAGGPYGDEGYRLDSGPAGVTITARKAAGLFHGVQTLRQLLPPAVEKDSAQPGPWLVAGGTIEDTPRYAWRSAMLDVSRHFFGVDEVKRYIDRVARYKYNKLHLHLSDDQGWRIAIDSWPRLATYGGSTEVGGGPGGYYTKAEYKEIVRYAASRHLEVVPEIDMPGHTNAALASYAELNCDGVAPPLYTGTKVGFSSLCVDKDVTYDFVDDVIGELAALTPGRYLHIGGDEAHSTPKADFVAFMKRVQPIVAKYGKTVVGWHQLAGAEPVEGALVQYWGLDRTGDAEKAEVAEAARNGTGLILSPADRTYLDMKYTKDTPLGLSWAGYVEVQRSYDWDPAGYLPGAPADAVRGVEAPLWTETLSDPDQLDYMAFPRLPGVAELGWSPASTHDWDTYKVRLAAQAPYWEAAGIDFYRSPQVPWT

[2] = molecular target: T2, β-N-acetylhexosaminidase from Talaromyces flavus (Talaromyces flavus, UniProt G5DAA0)
T2 construct: recombinant, secreted from Pichia pastoris, purified by cation exchange chromatography; GH20
T2 sequence (G5DAA0 18-628): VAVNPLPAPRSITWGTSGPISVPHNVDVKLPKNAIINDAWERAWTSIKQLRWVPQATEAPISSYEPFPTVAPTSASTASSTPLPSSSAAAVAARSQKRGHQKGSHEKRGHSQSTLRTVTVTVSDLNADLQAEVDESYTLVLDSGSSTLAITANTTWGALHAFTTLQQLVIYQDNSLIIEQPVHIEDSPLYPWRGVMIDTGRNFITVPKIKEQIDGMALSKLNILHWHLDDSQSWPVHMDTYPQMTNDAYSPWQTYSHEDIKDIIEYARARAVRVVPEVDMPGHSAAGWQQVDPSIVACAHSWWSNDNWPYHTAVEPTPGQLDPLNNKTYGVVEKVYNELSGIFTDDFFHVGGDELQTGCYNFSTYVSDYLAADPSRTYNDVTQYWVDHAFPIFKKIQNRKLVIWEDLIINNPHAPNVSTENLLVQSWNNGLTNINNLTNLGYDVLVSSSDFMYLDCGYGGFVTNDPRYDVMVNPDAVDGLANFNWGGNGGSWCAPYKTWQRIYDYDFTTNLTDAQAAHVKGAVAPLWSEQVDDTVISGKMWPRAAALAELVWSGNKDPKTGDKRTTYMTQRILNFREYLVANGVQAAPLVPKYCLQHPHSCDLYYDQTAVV

[3] = molecular target: T3, O-GlcNAcase from Bacteroides thetaiotaomicron (Bacteroides thetaiotaomicron, UniProt Q89ZI2)
T3 construct: gene BT_4395; gene from D. Vocadlo; GH84
T3 sequence (Q89ZI2 22-737): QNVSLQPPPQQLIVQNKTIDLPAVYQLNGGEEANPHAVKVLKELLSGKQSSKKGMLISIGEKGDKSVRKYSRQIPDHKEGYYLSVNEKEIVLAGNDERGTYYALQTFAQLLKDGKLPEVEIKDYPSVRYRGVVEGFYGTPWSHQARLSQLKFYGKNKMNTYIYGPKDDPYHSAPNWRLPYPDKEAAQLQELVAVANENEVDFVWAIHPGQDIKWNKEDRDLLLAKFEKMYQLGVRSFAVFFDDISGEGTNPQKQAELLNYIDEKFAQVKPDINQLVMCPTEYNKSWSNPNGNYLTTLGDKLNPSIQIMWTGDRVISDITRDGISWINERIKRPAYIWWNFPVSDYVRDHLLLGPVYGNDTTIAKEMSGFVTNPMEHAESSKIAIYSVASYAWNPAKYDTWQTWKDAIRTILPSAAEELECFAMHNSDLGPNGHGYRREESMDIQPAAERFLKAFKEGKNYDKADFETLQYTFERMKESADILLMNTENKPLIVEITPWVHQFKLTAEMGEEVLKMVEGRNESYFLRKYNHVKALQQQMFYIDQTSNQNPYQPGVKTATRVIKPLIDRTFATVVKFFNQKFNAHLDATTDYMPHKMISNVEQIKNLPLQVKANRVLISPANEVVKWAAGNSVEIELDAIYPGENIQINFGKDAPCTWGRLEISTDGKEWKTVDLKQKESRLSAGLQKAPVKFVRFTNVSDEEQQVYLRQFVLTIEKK

[4] = molecular target: T4, human O-GlcNAcase (Homo sapiens, UniProt O60502); details: read-out: KI [μM] / C-6-azido-NAG-thiazoline (2)
T4 construct: gene OGA; gene from D. Vocadlo; GH84
T4 sequence (O60502 1-916): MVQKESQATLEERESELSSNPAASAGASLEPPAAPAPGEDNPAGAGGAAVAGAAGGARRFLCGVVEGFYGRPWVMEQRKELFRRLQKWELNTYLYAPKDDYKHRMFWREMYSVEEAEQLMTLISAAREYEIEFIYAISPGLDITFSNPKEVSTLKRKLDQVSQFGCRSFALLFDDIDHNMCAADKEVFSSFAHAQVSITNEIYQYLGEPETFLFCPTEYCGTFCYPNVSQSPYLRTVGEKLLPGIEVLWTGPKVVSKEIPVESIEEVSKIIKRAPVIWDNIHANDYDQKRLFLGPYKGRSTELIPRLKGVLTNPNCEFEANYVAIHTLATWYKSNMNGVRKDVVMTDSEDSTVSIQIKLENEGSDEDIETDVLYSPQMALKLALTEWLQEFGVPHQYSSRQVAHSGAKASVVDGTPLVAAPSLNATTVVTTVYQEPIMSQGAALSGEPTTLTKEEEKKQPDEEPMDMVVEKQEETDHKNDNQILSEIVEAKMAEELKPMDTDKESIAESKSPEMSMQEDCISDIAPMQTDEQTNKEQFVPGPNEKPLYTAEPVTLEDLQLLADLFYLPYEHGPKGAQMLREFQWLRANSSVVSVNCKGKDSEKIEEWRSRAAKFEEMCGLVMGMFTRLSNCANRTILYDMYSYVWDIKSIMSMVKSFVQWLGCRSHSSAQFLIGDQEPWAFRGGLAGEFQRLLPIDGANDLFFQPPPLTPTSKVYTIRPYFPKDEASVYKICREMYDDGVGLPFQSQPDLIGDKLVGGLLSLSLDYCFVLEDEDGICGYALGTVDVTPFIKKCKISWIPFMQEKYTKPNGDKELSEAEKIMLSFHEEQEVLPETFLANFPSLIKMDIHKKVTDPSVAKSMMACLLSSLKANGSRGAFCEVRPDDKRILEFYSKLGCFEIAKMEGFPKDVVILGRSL

[5] = read-out: KI [μM] / NAG-thiazoline (1)
[6] = read-out: KI [μM] / C-6-azido-NAG-thiazoline (2)

| Compound | Ki [1] [µM] | Ki [2, 5] [µM] | Ki [3, 5] [µM] | Ki [2, 6] [µM] | Ki [4] [µM] | Ki [3, 6] [µM] |
| --- | --- | --- | --- | --- | --- | --- |
| CC1=N[C@@H]2[C@@H](O)[C@H](O)[C@@H](CO)O[C@@H]2S1 [compound 1, 1,2-Dideoxy-2'-methyl-α-D-glucopyrano-[2,1-d]-∆2'-thiazoline] | 24 ± 5 | 42.7 ± 1.9 | 0.029 ± 0.003 |  |  |  |
| CC1=N[C@@H]2[C@@H](O)[C@H](O)[C@@H](CN=[N+]=[N-])O[C@@H]2S1 [compound 2, 6-Azido-1,2-dideoxy-2'-methyl-α-D-glucopyrano-[2,1-d]-∆2'-thiazoline] |  |  |  | 212 ± 16.3 | 19.3 ± 11.9 | 3.1 ± 0.3 |
